Test results as given in the supplement of paper PMC10307832.

Assays:
Experiment in all cases: relative viability (nuclei count vs DMSO), 5 days (fraction); higher = more cells survive
NVP-TAE684 + AZD7762 = compound: COc1cc(N2CCC(N3CCN(C)CC3)CC2)ccc1Nc1ncc(Cl)c(Nc2ccccc2S(=O)(=O)C(C)C)n1 [NVP-TAE684] + NC(=O)Nc1cc(-c2cccc(F)c2)sc1C(=O)N[C@H]1CCCNC1 [AZD7762] (partner 0.2 µM)
Outline: (§1)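 Lung cancer cell lines were seeded in 1536-well plates and dosed by pin tool the next day, with either a single drug or a fixed anchor-drug dose combined with five library-drug doses (not always all listed) spaced in √10 steps. Five days later, one step fixed the cells and stained their nuclei (final 0.05% Triton X-100, 1% formaldehyde, 1 ug/ml Hoechst), and nuclei were counted on 4× images. Relative viability is the nuclei count in treated wells divided by the count in vehicle wells, and each value is the median of duplicate plates.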

Vandetanib + Dasatinib = compound: COc1cc2/c(=N/c3ccc(Br)cc3F)nc[nH]c2cc1OCC1CCN(C)CC1 [Vandetanib] + Cc1nc(Nc2ncc(C(=O)Nc3c(C)cccc3Cl)s2)cc(N2CCN(CCO)CC2)n1 [Dasatinib] (partner 0.075 µM)
Outline: as §1

Vandetanib + AZD7762 = compound: COc1cc2/c(=N/c3ccc(Br)cc3F)nc[nH]c2cc1OCC1CCN(C)CC1 [Vandetanib] + NC(=O)Nc1cc(-c2cccc(F)c2)sc1C(=O)N[C@H]1CCCNC1 [AZD7762] (partner 0.2 µM)
Outline: as §1

Vandetanib + Vorinostat = compound: COc1cc2/c(=N/c3ccc(Br)cc3F)nc[nH]c2cc1OCC1CCN(C)CC1 [Vandetanib] + O=C(CCCCCCC(=O)Nc1ccccc1)NO [Vorinostat] (partner 1 µM)
Outline: as §1

Question: Which results are given for NCI-H1666?
Answer: relative viability (NVP-TAE684 + AZD7762; first compound 0.2 µM): 0.898; relative viability (NVP-TAE684 + AZD7762; first compound 0.6325 µM): 0.889; relative viability (NVP-TAE684 + AZD7762; first compound 2 µM): 0.652; relative viability (Vandetanib + Dasatinib; first compound 0.02 µM): 0.767; relative viability (Vandetanib + Dasatinib; first compound 0.06325 µM): 0.723; relative viability (Vandetanib + Dasatinib; first compound 0.2 µM): 0.801; relative viability (Vandetanib + Dasatinib; first compound 0.6325 µM): 0.769; relative viability (Vandetanib + Dasatinib; first compound 2 µM): 0.779; relative viability (Vandetanib + AZD7762; first compound 0.02 µM): 0.83; relative viability (Vandetanib + AZD7762; first compound 0.06325 µM): 0.772; relative viability (Vandetanib + AZD7762; first compound 0.2 µM): 0.734; relative viability (Vandetanib + AZD7762; first compound 0.6325 µM): 0.814; relative viability (Vandetanib + AZD7762; first compound 2 µM): 0.722; relative viability (Vandetanib + Vorinostat; first compound 0.02 µM): 1.06; relative viability (Vandetanib + Vorinostat; first compound 0.06325 µM): 0.968; relative viability (Vandetanib + Vorinostat; first compound 0.2 µM): 1.09; relative viability (Vandetanib + Vorinostat; first compound 0.6325 µM): 0.964; relative viability (Vandetanib + Vorinostat; first compound 2 µM): 0.993

Question: With NCI-H460 as the cell line, how does the relative viability (NVP-TAE684 + AZD7762; first compound 0.2 µM) read?
Answer: The relative viability was 0.767.

Question: And the relative viability (NVP-TAE684 + AZD7762; first compound 0.6325 µM)?
Answer: The relative viability was 0.568.

Question: What about the relative viability (NVP-TAE684 + AZD7762; first compound 2 µM) of the same cell line?
Answer: The relative viability was 0.591.

Question: And the relative viability (Vandetanib + Dasatinib; first compound 0.02 µM)?
Answer: Its relative viability is 0.366.

Question: What about the relative viability (Vandetanib + Dasatinib; first compound 0.06325 µM) of the same cell line?
Answer: The relative viability was 0.536.

Question: What about the relative viability (Vandetanib + Dasatinib; first compound 0.2 µM) of the same cell line?
Answer: Its relative viability is 0.48.

Question: What about the relative viability (Vandetanib + Dasatinib; first compound 0.6325 µM) of the same cell line?
Answer: Its relative viability is 0.36.

Question: And the relative viability (Vandetanib + Dasatinib; first compound 2 µM)?
Answer: The relative viability was 0.482.

Question: And the relative viability (Vandetanib + AZD7762; first compound 0.02 µM)?
Answer: The relative viability was 0.497.

Question: What about the relative viability (Vandetanib + AZD7762; first compound 0.06325 µM) of the same cell line?
Answer: Its relative viability is 0.624.

Question: And the relative viability (Vandetanib + AZD7762; first compound 0.2 µM)?
Answer: The relative viability was 0.57.

Question: And the relative viability (Vandetanib + AZD7762; first compound 0.6325 µM)?
Answer: The relative viability was 0.466.

Question: What about the relative viability (Vandetanib + AZD7762; first compound 2 µM) of the same cell line?
Answer: The relative viability was 0.581.

Question: And the relative viability (Vandetanib + Vorinostat; first compound 0.02 µM)?
Answer: Its relative viability is 0.632.

Question: What about the relative viability (Vandetanib + Vorinostat; first compound 0.06325 µM) of the same cell line?
Answer: Its relative viability is 0.674.

Question: And the relative viability (Vandetanib + Vorinostat; first compound 0.2 µM)?
Answer: The relative viability was 0.685.

Question: And the relative viability (Vandetanib + Vorinostat; first compound 0.6325 µM)?
Answer: Its relative viability is 0.654.

Question: What about the relative viability (Vandetanib + Vorinostat; first compound 2 µM) of the same cell line?
Answer: The relative viability was 0.674.
